In ChEMBL document CHEMBL1126514, “Thiopene systems. 15. Synthesis and antihypertensive activity of 7- (subsituted benzamido)-6-hydroxythieno[3,2,-b]pyrans as nwe potassium channel activitors” (1993):

Key:
Assay type in all cases: functional
Rattus norvegicus [1] = assay: Dose to produce 30% reduction in mean arterial pressure in rat when administered perorally; details: Artery, po
Rattus norvegicus [2] = assay: Maximal change in mean arterial blood pressure comparing MAP immediately prior to and up to 240 min after oral dose in rat
Rattus norvegicus [3] = assay: Maximal change in mean arterial blood pressure comparing MAP immediately prior to and up to 240 min after oral dose of 0.3 mgkg of compound in rat
Rattus norvegicus [4] = assay: Maximal change in mean arterial blood pressure comparing MAP immediately prior to and up to 240 min after oral dose of 1 mgkg of compound in rat
Rattus norvegicus [5] = assay: Maximal change in mean arterial blood pressure comparing MAP immediately prior to and up to 240 min after oral dose of 0.1 mgkg of compound in rat

## CC(=O)c1cc2c(s1)[C@@H](NC(=O)c1ccc([N+](=O)[O-])cc1)[C@H](O)C(C)(C)O2
Rattus norvegicus [1]
  ED30: 0.89 mg/kg
Rattus norvegicus [2]
  Change MAP: 63%

## CC1(C)Oc2cc([N+](=O)[O-])sc2[C@@H](NC(=O)c2ccc([N+](=O)[O-])cc2)[C@@H]1O
Rattus norvegicus [2]
  Change MAP: 29%

## CC(=O)c1cc2c(s1)[C@@H](NC(=O)c1cccnc1)[C@H](O)C(C)(C)O2
Rattus norvegicus [2]
  Change MAP: 29%

## CC(=O)c1cc2c(s1)[C@@H](NC(=O)c1cccc(Cl)c1)[C@H](O)C(C)(C)O2
Rattus norvegicus [3]
  Change MAP: 17%
Rattus norvegicus [2]
  Change MAP: 59%

## COc1ccc(C(=O)N[C@@H]2c3sc(C(C)=O)cc3OC(C)(C)[C@H]2O)cc1
Rattus norvegicus [2]
  Change MAP: 20%

## CC(=O)c1cc2c(s1)[C@@H](NC(=O)c1ccccc1F)[C@H](O)C(C)(C)O2
Rattus norvegicus [2]
  Change MAP: 59%
Rattus norvegicus [4]
  Change MAP: -17%

## CC(=O)c1cc2c(s1)[C@@H](NC(=O)c1cccc([N+](=O)[O-])c1)[C@H](O)C(C)(C)O2
Rattus norvegicus [2]
  Change MAP: 63%
Rattus norvegicus [4]
  Change MAP: 17%

## CC1(C)Oc2cc([N+](=O)[O-])sc2[C@@H](NC(=O)c2ccccc2)[C@@H]1O
Rattus norvegicus [2]
  Change MAP: 38%

## CC(=O)c1cc2c(s1)[C@@H](NC(=O)c1ccc(C(F)(F)F)cc1)[C@H](O)C(C)(C)O2
Rattus norvegicus [2]
  Change MAP: 26%

## CC1(C)Oc2ccc(C#N)cc2[C@@H](N2CCCC2=O)[C@@H]1O [CROMAKALIM]
Rattus norvegicus [1]
  ED30: 0.19 mg/kg
Rattus norvegicus [2]
  Change MAP: 47%

## CC1(C)Oc2ccc(OC(F)(F)F)cc2[C@@H](N2Cc3ccccc3C2=O)[C@@H]1O [CELIKALIM]
Rattus norvegicus [1]
  ED30: 0.5 mg/kg

## CC(=O)c1cc2c(s1)[C@@H](NC(=O)c1ccccc1)[C@H](O)C(C)(C)O2
Rattus norvegicus [1]
  ED30: 0.2 mg/kg
Rattus norvegicus [2]
  Change MAP: 55%

## CC1(C)Oc2cc([N+](=O)[O-])sc2[C@@H](N2CCCCC2=O)[C@@H]1O
Rattus norvegicus [1]
  ED30: 0.015 mg/kg
Rattus norvegicus [5]
  Change MAP: 63%

## CC1(C)Oc2ccsc2[C@@H](NC(=O)c2ccccc2)[C@@H]1O
Rattus norvegicus [2]
  Change MAP: 35%

## CC1(C)Oc2cc([N+](=O)[O-])sc2[C@@H](N2Cc3ccccc3C2=O)[C@@H]1O
Rattus norvegicus [1]
  ED30: 0.22 mg/kg

## CC(=O)c1cc2c(s1)[C@@H](NC(=O)c1ccc(F)c(F)c1)[C@H](O)C(C)(C)O2
Rattus norvegicus [1]
  ED30: 0.099 mg/kg
Rattus norvegicus [2]
  Change MAP: 62%

## CC(=O)c1cc2c(s1)[C@@H](NC(=O)c1ccc(C)cc1)[C@H](O)C(C)(C)O2
Rattus norvegicus [2]
  Change MAP: 10%

## CC(=O)c1cc2c(s1)[C@@H](NC(=O)c1ccc(Cl)cc1)[C@H](O)C(C)(C)O2
Rattus norvegicus [1]
  ED30: 0.11 mg/kg
Rattus norvegicus [2]
  Change MAP: 60%

## CC(=O)c1cc2c(s1)[C@@H](NC(=O)c1ccc(F)cc1F)[C@H](O)C(C)(C)O2
Rattus norvegicus [2]
  Change MAP: 59%
Rattus norvegicus [5]
  Change MAP: 16%

## CC(=O)c1cc2c(s1)[C@@H](NC(=O)c1ccc(F)cc1)[C@H](O)C(C)(C)O2
Rattus norvegicus [1]
  ED30: 0.059 mg/kg
Rattus norvegicus [2]
  Change MAP: 75%

## CC(=O)c1cc2c(s1)[C@@H](NC(=O)c1ccco1)[C@H](O)C(C)(C)O2
Rattus norvegicus [2]
  Change MAP: 38%
